Legend:
[1] = unprotected lysine 10 equiv, 5 days, pH 7.4 and pH 8.5, room temperature
Procedure: To this end, unprotected lysine (10 equiv) was incubated with 1a for 5 days (pH 7.4 and pH 8.5, room temperature).
The assay was performed analogously to glutathion reactivity using L -lysine. In addition to pH 7.4
The reaction was monitored for a total
of 5 days and aliquotes were taken at indicated timepoints and analyzed via UPLC -UV/MS.

RAMOS cells = experiment: Streptavidin pull-down with BTK probes in RAMOS cells (LFQ); assay type: cell-based, human; conditions: 10 μM probe, log2-fold change >2.5, p <0.01
Procedure: (b) Comparison of the in-cell reactivity profiles of BTK probes 8–12 in RAMOS cells (250 nM, 1 h, 37 °C) analyzed by gel-based ABPP. (c) Superposition of the two stereoisomers of 9 covalently docked onto the crystal structure of BTK (PDB: 5P9J).
To verify the identity of the protein(s) labeled by our best-performing probe 9, we performed in-cell labeling followed by streptavidin pull-down coupled to LC-MS/MS analysis.
4.8 In-cell protein labeling and s ample preparation for proteomic pull-down Cells were cultured, treated and lysed as described in 4.4. Lysates (approx. 200 μg of protein each) […]
Afterwards, the samples we re processed according to a procedure published by Becker et al. 10: A total of 50 μl of mixed hydrophobic and hydrophilic carboxylate -coated magnetic beads (1:1, prewashed with PBS; Seramag™, Cytavia) was added to the click reaction mixture followed by 600 μl of absolute ethanol to precipitate the proteins. Beads were washed thrice with of 80% ethanol and proteins were eluted by two sequential washes of 0.2% SDS in PBS. […]
The obtained raw-data was analyzed using FragPipe (v20 to 21) using the built-in LFQ-MBR workflow using the whole human proteome as search space and applying the following MSFragger11 settings: […]

BTK in RAMOS cells = target: T1, BTK in RAMOS cells (Homo sapiens, UniProt Q06187); experiment: Gel-based ABPP of BTK probes in RAMOS cells; assay type: cell-based; conditions: 250 nM, 1 h, 37 °C
T1 construct: we performed a gel-based ABPP experiment using RAMOS cells; host or cells: RAMOS
From the text: Motivated by these promising results, we wanted to extend the scope toward a different class of kinase inhibitors. […] Inspired by these findings, we synthesized a series of VPA probes based on the pyrazolo[3,4-d]-pyrimidine scaffold (8–11, Figure a), each harboring a different aromatic linker. To compare their reactivity and selectivity for BTK, we performed a gel-based ABPP experiment using RAMOS cells. […] In contrast, for all four PA probes, only one intense band was obtained at the same height as BTK. […] Analogously to Afatinib-derived probe 4a, we wanted to investigate whether one stereoisomer might show preferential binding.
(b) Comparison of the in-cell reactivity profiles of BTK probes 8–12 in RAMOS cells (250 nM, 1 h, 37 °C) analyzed by gel-based ABPP. […]
Fluorescence was monitored over 4 h at 30 °C every 60 seconds (λex = 360 nm and λem = 492 nm).
Background‑subtracted fluorescence intensity (RFU) was plotted against time (s), and data were fitted to a single‑phase association model: […]
4.7 In-cell protein labeling and in -gel fluorescence analysis […]
Afterwards, the precipitate was redissolved in 40 µl 8 M urea (100 mM Tris, pH 8), 8 µl Laemmli buffer were added and the samples were denatured at 95 °C for 5 minutes. Proteins were seperated via SDS - PAGE (12% or 4-20% acrylamide gels) and analyzed on a Gel Doc XR+ (Bio-Rad, USA). […]

T1 sequence (Q06187 whole entry): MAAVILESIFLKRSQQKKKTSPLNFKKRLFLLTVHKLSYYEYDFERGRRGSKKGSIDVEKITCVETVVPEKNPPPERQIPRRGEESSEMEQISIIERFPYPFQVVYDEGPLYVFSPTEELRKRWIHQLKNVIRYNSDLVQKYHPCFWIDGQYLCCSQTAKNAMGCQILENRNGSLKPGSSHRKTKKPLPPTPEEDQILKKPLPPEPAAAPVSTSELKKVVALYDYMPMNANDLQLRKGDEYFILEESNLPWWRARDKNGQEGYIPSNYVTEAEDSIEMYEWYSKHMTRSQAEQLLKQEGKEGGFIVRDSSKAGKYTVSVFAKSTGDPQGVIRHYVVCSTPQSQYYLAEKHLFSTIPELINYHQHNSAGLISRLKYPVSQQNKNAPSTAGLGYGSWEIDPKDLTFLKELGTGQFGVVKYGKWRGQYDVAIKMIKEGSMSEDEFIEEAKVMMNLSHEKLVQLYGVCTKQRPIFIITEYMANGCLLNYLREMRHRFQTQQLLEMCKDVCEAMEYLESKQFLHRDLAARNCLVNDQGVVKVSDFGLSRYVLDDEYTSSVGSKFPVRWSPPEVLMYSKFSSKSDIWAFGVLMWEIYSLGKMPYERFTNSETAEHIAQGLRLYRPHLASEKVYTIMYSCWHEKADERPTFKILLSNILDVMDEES

Compound | reactivity toward L-lysine / buffer stability [1] | off-targets significantly enriched (RAMOS cells) | in-cell reactivity profile (gel bands) (BTK in RAMOS cells)
C=CP(=O)(Nc1ccccc1)OCC (stereo not drawn) [1a] | no reaction or degradation products were detected |  | 
C#Cc1cccc(Oc2ccc(-c3nn(C4CCCN(C(=O)C=C)C4)c4ncnc(N)c34)cc2)c1 (stereo not drawn) [compound 12, PF-06658607, reference compound] |  | 73 | additional prominent off-target band around 60 kDa

From paper PMC12951430, “Modular Vinyl Phosphonamidates for Cysteine-Directed Protein Targeting” (Journal of the American Chemical Society, 2026)
